Results reported in patent US10125134B2 (Mirati Therapeutics, Inc., priority 2016, dated 2018).
Like-named read-outs stand apart in the source and are kept apart here.

Columns and labels:
[1] = test system: NCI-H358 cells (express KRas G12C), Phospho-ERK; experiment: Cellular inhibition of KRas G12C: Phospho-ERK in NCI-H358 cells; assay type: cell-based; conditions: Homo sapiens, pERK(Thr202/Tyr204) normalized with GAPDH, NCI-H358 cells, 3 hours, read-out: IC50
Summary of the method: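 IC50 derived by 4-parameter fit of GAPDH-normalized pERK(Thr202/Tyr204) signal, as percent of DMSO control. Signal came from in-cell immunodetection with infrared secondaries after 3 h compound exposure of KRas G12C NCI-H358 cells at 0.5% DMSO.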

[2] = target: KRas G12C (Homo sapiens, UniProt P01116, C118S/C51S/C80L/G12C); experiment: KRas G12C Modification Assay (LCMS detection of covalent adduct); assay type: binding; conditions: normalized percent of control; tested at 5 μM concentration for 3 hours
Summary of the method: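 Covalent modification was read by reverse-phase LC/MS of intact protein after compound exposure, each reaction stopped at its time point with 25 mM acetic acid. Unmodified-protein signal, taken as percent of total, was normalised to untreated protein and reported as POC.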

Row | POC [2] | SMILES | IC50 ([1]; NCI-H358, 3 h) | IC50 [1]
1 | C (“C”>50% POC) | C=CC(=O)N1CCN(c2nc(OC[C@@H]3CCCN3C)nc3c2CCN(c2cccc(Cl)c2CC)C3)C[C@@H]1CC#N [Example 337, 2-[(2S)-4-[7-(3-chloro-2-ethyl-phenyl)-2-[[(2S)-1-methylpyrrolidin-2-yl]methoxy]-6,8-dihydro-5H-pyrido[3,4-d]pyrimidin-4-yl]-1-prop-2-enoyl-piperazin-2-yl]acetonitrile] | 0.1 to 1000 nM | –
2 | C (“C”>50% POC) | C=CC(=O)N1CCN(c2nc(OC[C@@H]3CCCN3C)nc3c2CCN(c2cccc4cccc(F)c24)C3)C[C@@H]1CC#N [Example 338, 2-((S)-1-acryloyl-4-(7-(8-fluoronaphthalen-1-yl)-2-(((S)-1-methylpyrrolidin-2-yl)methoxy)-5,6,7,8-tetrahydropyrido[3,4-d]pyrimidin-4-yl)piperazin-2-yl)acetonitrile] | 0.1 to 1000 nM | –
3 | C (“C”>50% POC) | C=CC(=O)N1CCN(c2nc(OC[C@@H]3CCCN3CC)nc3c2CCN(c2cccc(Cl)c2C(F)(F)F)C3)C[C@@H]1CC#N [Example 339, 2-((S)-1-acryloyl-4-(7-(3-chloro-2-(trifluoromethyl)phenyl)-2-(((S)-1-ethylpyrrolidin-2-yl)methoxy)-5,6,7,8-tetrahydropyrido[3,4-d]pyrimidin-4-yl)piperazin-2-yl)acetonitrile] | 0.1 to 1000 nM | –
4 | C (“C”>50% POC) | C=CC(=O)N1CCN(c2nc(OC[C@@H]3CCCN3C)nc3c2CCN(c2cnccc2OC)C3)C[C@@H]1CC#N [Example 340, 2-((S)-1-acryloyl-4-(7-(4-methoxypyridin-3-yl)-2-(((S)-1-methylpyrrolidin-2-yl)methoxy)-5,6,7,8-tetrahydropyrido[3,4-d]pyrimidin-4-yl)piperazin-2-yl)acetonitrile] | > 1000 nM | –
5 | C (“C”>50% POC) | C=CC(=O)N1CCN(c2nc(OC[C@@H]3CCCN3CCO)nc3c2CCN(c2cccc4ccccc24)C3)C[C@@H]1CC#N [Example 341, 2-((S)-1-acryloyl-4-(2-(((S)-1-(2-hydroxyethyl)pyrrolidin-2-yl)methoxy)-7-(naphthalen-1-yl)-5,6,7,8-tetrahydropyrido[3,4-d]pyrimidin-4-yl)piperazin-2-yl)acetonitrile] | 0.1 to 1000 nM | –
6 | C (“C”>50% POC) | CN(C)C/C=C/C(=O)N1CCN(c2nc(OC[C@@H]3C[C@@H](O)CN3C)nc3c2CCN(c2cccc(F)c2C(F)(F)F)C3)C[C@@H]1CC#N [Example 342, 2-[(2S)-1-[(E)-4-(dimethylamino)but-2-enoyl]-4-[7-[3-fluoro-2-(trifluoromethyl)phenyl]-2-[[(2S,4R)-4-hydroxy-1-methyl-pyrrolidin-2-yl]methoxy]-6,8-dihydro-5H-pyrido[3,4-d]pyrimidin-4-yl]piperazin-2-yl]acetonitrile] | – | 0.1 to 1000 nM
7 | C (“C”>50% POC) | C=CS(=O)(=O)N1CCN(c2nc(OC[C@@H]3CCCN3C)nc3c2CCN(c2cccc(C)c2C)C3)CC1 [Example 343, (S)-7-(2,3-dimethylphenyl)-2-((1-methylpyrrolidin-2-yl)methoxy)-4-(4-(vinylsulfonyl)piperazin-1-yl)-5,6,7,8-tetrahydropyrido[3,4-d]pyrimidine] | > 1000 nM | –
8 | C (“C”>50% POC) | C=CC(=O)N1CCN(c2nc(OC[C@H]3CCCN3C)nc3c2CCN(c2cc(O)cc4ccccc24)C3)C[C@@H]1CC#N [Example 344, 2-[(2S)-4-[7-(3-hydroxy-1-naphthyl)-2-[[(2R)-1-methylpyrrolidin-2-yl]methoxy]-6,8-dihydro-5H-pyrido[3,4-d]pyrimidin-4-yl]-1-prop-2-enoyl-piperazin-2-yl]acetonitrile] | 0.1 to 1000 nM | –
9 | C (“C”>50% POC) | C=CC(=O)N1CCN(c2nc(OC[C@@H]3CCCN3C)nc3c2CCN(c2ccncc2C)C3)C[C@@H]1CC#N [Example 345, 2-[(2S)-4-[7-(3-methyl-4-pyridyl)-2-[[(2S)-1-methylpyrrolidin-2-yl]methoxy]-6,8-dihydro-5H-pyrido[3,4-d]pyrimidin-4-yl]-1-prop-2-enoyl-piperazin-2-yl]acetonitrile] | > 1000 nM | –
10 | C (“C”>50% POC) | CN1CCC[C@H]1COc1nc2c(c(N3CCN(C(=O)/C=C/CN4CCOCC4)[C@@H](CC#N)C3)n1)CCN(c1cccc(Cl)c1C(F)(F)F)C2 [Example 346, 2-[(2S)-4-[7-[3-chloro-2-(trifluoromethyl)phenyl]-2-[[(2S)-1-methylpyrrolidin-2-yl]methoxy]-6,8-dihydro-5H-pyrido[3,4-d]pyrimidin-4-yl]-1-[(E)-4-morpholinobut-2-enoyl]piperazin-2-yl]acetonitrile] | 0.1 to 1000 nM | –
11 | C (“C”>50% POC) | CN1CCC[C@H]1COc1nc2c(c(N3CCN(C(=O)/C=C/CN4CCCC4)[C@@H](CC#N)C3)n1)CCN(c1cccc(Cl)c1C(F)(F)F)C2 [Example 347, 2-[(2S)-4-[7-[3-chloro-2-(trifluoromethyl)phenyl]-2-[[(2S)-1-methylpyrrolidin-2-yl]methoxy]-6,8-dihydro-5H-pyrido[3,4-d]pyrimidin-4-yl]-1-[(E)-4-pyrrolidin-1-ylbut-2-enoyl]piperazin-2-yl]acetonitrile] | 0.1 to 1000 nM | –
12 | C (“C”>50% POC) | C=CC(=O)N1CCN(c2nc(O[C@H](C)[C@H]3CCCN3C)nc3c2CCN(c2cc(O)cc4ccccc24)C3)C[C@@H]1CC#N [Example 348, 2-[(2S)-4-[7-(3-hydroxy-1-naphthyl)-2-[(1R)-1-[(2R)-1-methylpyrrolidin-2-yl]ethoxy]-6,8-dihydro-5H-pyrido[3,4-d]pyrimidin-4-yl]-1-prop-2-enoyl-piperazin-2-yl]acetonitrile] | 0.1 to 1000 nM | –
13 | C (“C”>50% POC) | C=CC(=O)N1CCN(c2nc(OC[C@@H]3CCCN3C)nc3c2CCN(c2c(C)ccc(F)c2C)C3)C[C@@H]1CC#N [Example 349, 2-((S)-1-acryloyl-4-(7-(3-fluoro-2,6-dimethylphenyl)-2-(((S)-1-methylpyrrolidin-2-yl)methoxy)-5,6,7,8-tetrahydropyrido[3,4-d]pyrimidin-4-yl)piperazin-2-yl)acetonitrile] | 0.1 to 1000 nM | –
14 | C (“C”>50% POC) | C=CC(=O)N1CCN(c2nc(OC[C@@H]3CCN(C)C3)nc3c2CCN(c2cc(O)cc4ccccc24)C3)C[C@@H]1CC#N [Example 350, 2-((S)-1-acryloyl-4-(7-(3-hydroxynaphthalen-1-yl)-2-(((R)-1-methylpyrrolidin-3-yl)methoxy)-5,6,7,8-tetrahydropyrido[3,4-d]pyrimidin-4-yl)piperazin-2-yl)acetonitrile] | 0.1 to 1000 nM | –
15 | C (“C”>50% POC) | C=CC(=O)N1CCN(c2nc(OCc3ncc[nH]3)nc3c2CCN(c2cccc4ccccc24)C3)C[C@@H]1CC#N [Example 351, 2-[(2S)-4-[2-(1H-imidazol-2-ylmethoxy)-7-(1-naphthyl) -6,8-dihydro-5H-pyrido[3,4-d]pyrimidin-4-yl]-1-prop-2-enoyl-piperazin-2-yl]acetonitrile] | 0.1 to 1000 nM | –
16 | C (“C”>50% POC) | C=CC(=O)N1CCN(c2nc(OC[C@@H]3CCCN3C)nc3c2CCN(c2cnccc2C2CC2)C3)C[C@@H]1CC#N [Example 352, 2-[(2S)-4-[7-(4-cyclopropyl-3-pyridyl)-2-[[(2S)-1-methylpyrrolidin-2-yl]methoxy]-6,8-dihydro-5H-pyrido[3,4-d]pyrimidin-4-yl]-1-prop-2-enoyl-piperazin-2-yl]acetonitrile] | 0.1 to 1000 nM | –
17 | C (“C”>50% POC) | C=CC(=O)N1CCN(c2nc(OC[C@@H]3CCCN3C)nc3c2CCN(c2cccc4ccccc24)C3)[C@H](C)C1 [Example 353, 1-[(3R)-3-methyl-4-[2-[[(2S)-1-methylpyrrolidin-2-yl]methoxy]-7-(1-naphthyl)-6,8-dihydro-5H-pyrido[3,4-d]pyrimidin-4-yl]piperazin-1-yl]prop-2-en-1-one] | > 1000 nM | –
18 | C (“C”>50% POC) | C=CC(=O)N1CCN(c2nc(OC[C@@H]3CCCN3C)nc3c2CCN(c2cccc4ccccc24)C3)C(C)(C)C1 [Example 354, 1-[3,3-dimethyl-4-[2-[[(2S)-1-methylpyrrolidin-2-yl]methoxy]-7-(1-naphthyl)-6,8-dihydro-5H-pyrido[3,4-d]pyrimidin-4-yl]piperazin-1-yl]prop-2-en-1-one] | > 1000 nM | –
19 | A (“A”≤25% POC) | C=CC(=O)N1CCN(c2nc(OC[C@@H]3C[C@@H](F)CN3C)nc3c2CCN(c2cc(OC)cc4ccccc24)C3)CC1 [Example 355, 1-[4-[2-[[(2S,4R)-4-fluoro-1-methyl-pyrrolidin-2-yl]methoxy]-7-(3-methoxy-1-naphthyl)-6,8-dihydro-5H-pyrido[3,4-d]pyrimidin-4-yl]piperazin-1-yl]prop-2-en-1-one] | > 1000 nM | –
20 | C (“C”>50% POC) | C=CC(=O)N1CCN(c2nc(OC[C@@H]3C[C@@H](OC)CN3C)nc3c2CCN(c2cc(OC)cc4ccccc24)C3)CC1 [Example 356, 1-[4-[2-[[(2S,4R)-4-methoxy-1-methyl-pyrrolidin-2-yl]methoxy]-7-(3-methoxy-1-naphthyl)-6,8-dihydro-5H-pyrido[3,4-d]pyrimidin-4-yl]piperazin-1-yl]prop-2-en-1-one] | > 1000 nM | –
21 | A (“A”≤25% POC) | C=CC(=O)N1CCN(c2nc(OC[C@@H]3C[C@@H](F)CN3C)nc3c2CCN(c2cc(O)cc4ccccc24)C3)CC1 [Example 357, 1-[4-[2-[[(2S,4R)-4-fluoro-1-methyl-pyrrolidin-2-yl]methoxy]-7-(3-hydroxy-1-naphthyl)-6,8-dihydro-5H-pyrido[3,4-d]pyrimidin-4-yl]piperazin-1-yl]prop-2-en-1-one] | 0.1 to 1000 nM | –
